# Test results reported in patent US20220073470A1, “INHIBITORS OF CGAS ACTIVITY AS THERAPEUTIC AGENTS” (BELLBROOK LABS, LLC, priority 2019, published 2022).
# Read-outs that look alike come from different tables or passages of the source.
# Experiments:
# [1] = target: T1, full-length human cGAS (Homo sapiens, UniProt Q8N884); experiment: cGAS enzymatic assay (FP readout), inhibition of cGAS; type: biochemical
# T1 construct: The cGAS assay was used to screen 100,000 compounds with full-length human cGAS; 6xHis; made in house
# T1 sequence (Q8N884 whole entry): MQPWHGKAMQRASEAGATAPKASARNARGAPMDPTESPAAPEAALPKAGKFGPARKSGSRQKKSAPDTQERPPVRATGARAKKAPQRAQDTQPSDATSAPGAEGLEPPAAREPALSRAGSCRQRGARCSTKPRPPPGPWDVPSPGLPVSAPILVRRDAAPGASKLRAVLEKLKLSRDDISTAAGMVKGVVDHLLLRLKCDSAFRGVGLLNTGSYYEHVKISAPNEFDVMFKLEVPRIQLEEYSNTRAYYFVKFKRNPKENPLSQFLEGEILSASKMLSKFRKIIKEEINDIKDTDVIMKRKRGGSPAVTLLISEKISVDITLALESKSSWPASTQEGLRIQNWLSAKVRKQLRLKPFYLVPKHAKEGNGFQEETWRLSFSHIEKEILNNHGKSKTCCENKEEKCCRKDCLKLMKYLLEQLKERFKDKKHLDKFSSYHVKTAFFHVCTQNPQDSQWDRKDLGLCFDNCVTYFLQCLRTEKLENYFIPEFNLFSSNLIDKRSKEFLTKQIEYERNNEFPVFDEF
# Protocol: Some exemplary compounds of the disclosure were tested for inhibition of cGAS (30 nM). The results are provided in Table 1 where “A” indicates an IC50 of less than 100 nM, “B” indicates an IC50 of greater than 100 nM and less than 500 nM, “C” indicates an IC50 of greater than 500 nM and less than 1 μM, “D” indicates an IC50 of greater than 1 μM and less than 10 μM, and “E” indicates an IC50 of greater than 10 μM.
# A homogenous cGAS enzymatic assay was developed with fluorescence polarization (FP) and time-resolved Forster resonance energy transfer (TR-FRET) readouts (FIG. 2A-D). The cGAS assay was used to screen 100,000 compounds with full-length human cGAS (FIG. 2E), resulting in the identification of novel chemotypes, two of which are further developed in a structure-driven hit-to-lead study (Table 3, below). The assay performance was robust, as indicated by respective Z and Z′ values of 0.59 and 0.63 in the screen; compounds with polarization values greater than three SDs from the mean were considered hits; a scatterplot from 10 plates (3,200 compounds) is shown in FIG. 2D.
# (§1) Potency and MOA studies, including Mn^2+ sensitivity, are performed using the cGAS enzymatic assay. Dose response experiments are used to determine IC50 values under basal conditions (5 mM MgCl2, 100 μM ATP/GTP), and with the addition of physiological levels of Mn (0.2 mM) using human and mouse cGAS. Ligand optimization is driven by potency with the human enzyme; potency with mouse cGAS informs selection of an appropriate disease model for efficacy studies. Competition with ATP and GTP is assessed by comparing basal IC50 values to those in the presence of saturating ATP or GTP, and subsequently confirmed by measuring velocity vs. substrate at varying ATP or GTP levels. Inhibitor residence times (1/koff) are used as a key parameter for prioritizing compounds and driving SAR, because a longer residence time often results from an allosteric mechanism, and can also correlate with improved cellular activity. The cGAS enzymatic assay is used with the jump dilution method to measure residence times (inhibitor dissociation rates), as described for kinases using the very similar ADP assay. Biophysical methods, including SPR and TSAn, are used as orthologous methods for residence time measurements and kd estimates.
# [2] = target: Mouse cGAS (Mus musculus, UniProt Q8C6L5); experiment: cGAS enzymatic assay with mouse cGAS; type: biochemical
# Chain of Mouse cGAS (Q8C6L5 whole entry): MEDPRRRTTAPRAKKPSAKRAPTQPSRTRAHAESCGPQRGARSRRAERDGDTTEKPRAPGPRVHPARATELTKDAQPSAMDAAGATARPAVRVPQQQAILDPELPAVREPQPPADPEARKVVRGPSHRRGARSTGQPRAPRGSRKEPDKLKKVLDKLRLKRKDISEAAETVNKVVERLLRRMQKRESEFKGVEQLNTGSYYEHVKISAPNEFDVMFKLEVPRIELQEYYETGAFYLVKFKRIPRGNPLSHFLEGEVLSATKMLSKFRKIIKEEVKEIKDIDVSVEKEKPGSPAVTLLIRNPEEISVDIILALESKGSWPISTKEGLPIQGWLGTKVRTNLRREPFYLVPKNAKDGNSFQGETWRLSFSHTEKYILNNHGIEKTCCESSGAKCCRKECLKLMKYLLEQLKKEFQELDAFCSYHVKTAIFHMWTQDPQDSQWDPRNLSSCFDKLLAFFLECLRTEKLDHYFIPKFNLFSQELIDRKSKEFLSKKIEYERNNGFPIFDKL
# Protocol: as §1
# [3] = Solubility Ksol in PBS pH 7.4; type: physicochemical; conditions: pH 7.4, aqueous buffer, kinetic from dmso stock
# [4] = Human microsomal stability (NADPH); type: in vitro ADME; conditions: liver microsomes, read-out: Human MS Stability (NADPH) t1/2
# Protocol: (§2) Compounds are tested in Caco-2 and MDR1-MDCK permeability assays to provide a measure of intestinal absorption, blood-brain-permeability and efflux by P-glycoprotein (P-gp), a frequent obstacle to effective CNS delivery. CNS drugs are associated with high passive membrane permeability (Papp>1×10^−6 cm/sec) and have low efflux ratios (Papp(B−A)/Papp(A−B)<2.5). Metabolic stability is tested using mouse and human liver microsomes incubated with NADPH for CYP-dependent metabolism and with UDPGA for glucuronidation. Compounds are tested for pharmacokinetics and brain penetration in mice using oral, intravenous and intraperitoneal administration.
# [5] = Mouse microsomal stability (NADPH); type: in vitro ADME; conditions: liver microsomes, read-out: Mouse MS Stability (NADPH) t1/2
# Protocol: as §2
# [6] = tested on: Madin-Darby Canine Kidney cells-Multi Drug Resistance pump; experiment: MDCK-MDR permeability and efflux; type: in vitro ADME
# Protocol: as §2
# [7] = tested on: P-glycoprotein (MDR1); experiment: MDCK-MDR permeability and efflux; type: in vitro ADME, Canine; conditions: dog, MDCK-MDR1
# Protocol: as §2
# [8] = tested on: kinases (Abl1, PKA, TBK1), GTPase (Rac1), phosphodiesterase (PDE4A), ENPP1; experiment: Selectivity panel of nucleotide-utilizing enzymes; type: biochemical
# Protocol: The compounds of formula (I) of the disclosure were tested for improved potency and other drug-like properties.
# A panel of nucleotide-utilizing enzymes that included kinases (Abl1, PKA, TBK1—which transduces cGAS/STING signals, see FIG. 4) a GTPase (Rac1), a phosphodiesterase (PDE4A), and ENPP1, a nucleotidase that degrades cGAMP, was used preliminarily. cGAS assays were used to perform dose response measurements with cGAS inhibitors. In addition to these enzymes, inhibitors are tested with three other members of the oligoadenylate synthases (OAS), nucleic acid sensors that activate innate immunity via production of short, 2′-5′ oligoadenylate second messengers. Methods for expression and purification of the human and/or porcine enzymes in E. coli or baculovirus-infected insect cells have been developed as well as a simple, absorbance-based assay using commercially available pyrophosphate kit. In addition, an FP-based assay (competitive displacement of a fluor-cGAMP tracer) is developed to test compounds as ligands for STING.
# [9] = tested on: DNA-stimulated IFNβ expression; experiment: IFNβ ELISA, DNA-stimulated IFNβ expression; type: cell-based
# Protocol: (§3) FIG. 5A illustrates activity of IFNβ expression of compound 14 in three different experiments. FIG. 5B illustrates the ISG mRNA expression of compound 14 in THP1-dual cells. Compound 14 in concentration of 200 μM was evaluated after 24 hours.
# (§4) Cellular activity of several compounds of formula (I) was assessed in […]. For example, FIG. 5A illustrates activity of IFNβ expression, and FIG. 5B illustrates the ISG mRNA expression of compound 14 in THP1-dual cells.
# [10] = tested on: IRF3-driven transcription; experiment: IRF3-Luc reporter, THP1 dual-cell reporter system; type: cell-based; conditions: Homo sapiens, THP-1; read-out: Cellular IRF3-Luc
# Excerpt: (§5) FIG. 4 includes a schematic showing the THP1 dual-cell reporter system: secreted luciferase reports on IRF3-driven transcription; secreted alkaline phosphatase reports on NFκB-driven transcription, both downstream of cGAS/STING.
# [11] = tested on: NFκB-driven transcription; experiment: NFκB-SEAP reporter, THP1 dual-cell reporter system; type: cell-based; conditions: Homo sapiens, THP-1; read-out: Cellular NFκB-SEAP
# Excerpt: as §5
# [12] = tested on: ISG mRNA expression; experiment: ISG mRNA expression in THP1-dual cells; type: cell-based
# Protocol: as §3, §4
# [13] = target: cGAS (Homo sapiens, UniProt Q8N884); experiment: SPR binding to cGAS; conditions: enzymatic analysis and biophysical binding studies (SPR, TSA)
# Chain of cGAS (Q8N884 whole entry): as the sequence (Q8N884 whole entry) above
# Excerpt: Following confirmation of hits at three concentrations and removal of compounds with visually evident reactivity or metabolic liabilities, non-stoichiometric inhibitors, aggregators, DNA intercalators and redox-active compounds were triaged using established assays. Initial SAR based on more than 100 commercially available analogs provided additional confidence that the compounds of the disclosure were bonafide inhibitors, and informed potential scaffold hops and toleration for modifications. The compounds of formula (I) of the disclosure were selected for advancement into a hit-to-lead study. […] The compounds of formula (I) of the disclosure are competitive with GTP and its potency is enhanced in the presence of Mn^2+.
# Potency and MOA studies, including Mn^2+ sensitivity, are performed using the cGAS enzymatic assay. Dose response experiments are used to determine IC50 values under basal conditions (5 mM MgCl2, 100 μM ATP/GTP), and with the addition of physiological levels of Mn (0.2 mM) using human and mouse cGAS. Ligand optimization is driven by potency with the human enzyme; potency with mouse cGAS informs selection of an appropriate disease model for efficacy studies. Competition with ATP and GTP is assessed by comparing basal IC50 values to those in the presence of saturating ATP or GTP, and subsequently confirmed by measuring velocity vs. substrate at varying ATP or GTP levels. […]
compound,measurement,setting,value
"COc1cc2c(-n3ccnc3)ccnc2cc1Cl [Compound 14, 7-chloro-4-(1H-imidazol-1-yl)-6-methoxyquinoline]",IC50,"[1]; 100 μM ATP/GTP, read-out: Enzymatic FP Std (100 μM ATP/GTP)",391 nM
same,IC50,"[1]; 1 mM ATP/GTP, read-out: Enzymatic FP Physiological (1 mM ATP/GTP)",1920 nM
same,IC50,"[1]; 5 mM Mg2+, 0.2 mM Mn2+, read-out: IC50 (5 mM Mg^2+, 0.2 mM Mn^2+)",48 ± 2 nM
same,IC50,"[1]; 5 mM Mg2+, no Mn2+, read-out: IC50 (5 mM Mg^2+)",550 ± 10 nM
same,IC50,"[1]; cGAS (30 nM), no Mn2+, read-out: Inhibition cGAS (IC50 class)",500 to 1000 nM
same,IC50,"[1]; cGAS (30 nM), with Mn2+, read-out: Inhibition cGAS + Mn^2+ (IC50 class)",< 100 nM
same,MOA,[1]; competition with substrates,GTP Competitive
same,IC50,[2],93 nM
same,solubility,[3],224 µM
same,half-life,[4],1.93 h
same,half-life,[5],0.355 h
same,MDR-1-mediated export,[6],no indication of MDR-1-mediated export
same,efflux ratio,[7],0.5
same,Papp A→B,[7]; A→B,76.7 ×10⁻⁶ cm/s
same,"Off-Target Activity (Kinase, PDE, GTPase, ENPP1)",[8],None
same,Inhibitory activity with panel of nucleotide-utilizing enzymes,"[8]; at 200 μM, kinases, a GTPase, a phosphodiesterase, a nucleotidase",lack of inhibitory activity
same,DNA-stimulated IFNβ expression as measured by ELISA,[9],specific inhibition
same,IC50,[9]; read-out: Cellular IFNβ ELISA,68000 nM
same,IC50,[10],75000 nM
same,IC50,[11],59000 nM
same,ISG expression,[12],inhibition
same,ISG expression (fold decrease @ 200 μM),"[12]; 200 μM, THP1-dual cells, 24 hours",2-10×
same,Binding stoichiometry to cGAS,[13],Stoichiometric binding (1:1)
